The term EC50 denotes the concentration that produces a half-maximal response.

Several values for one entry are separate records, joined by “and”; a condition that tells them apart may be missing. Identical values can stand only once.

Experiment [1] concerns HCV replicon containing cells. The experiment can be described thus: Direct response of HCV replicon containing cells to TLR agonists. Type of experiment: cell-based, human. The settings on record: compound applied directly to replicon cells, not via PBL conditioned medium. On the technique in general: Replicon systems follow genome replication, usually without infectious particles.

Another experiment addresses T1, TLR7 (Homo sapiens, UniProt Q9NYK1).
T1 construct: PBL contain as a subpopulation plasmacytoid dendritic cells which are the natural interferon producing cells; endogenous in cells; host or cells: peripheral blood lymphocytes (PBL), containing plasmacytoid dendritic cells
T1 sequence (Q9NYK1 27-1049): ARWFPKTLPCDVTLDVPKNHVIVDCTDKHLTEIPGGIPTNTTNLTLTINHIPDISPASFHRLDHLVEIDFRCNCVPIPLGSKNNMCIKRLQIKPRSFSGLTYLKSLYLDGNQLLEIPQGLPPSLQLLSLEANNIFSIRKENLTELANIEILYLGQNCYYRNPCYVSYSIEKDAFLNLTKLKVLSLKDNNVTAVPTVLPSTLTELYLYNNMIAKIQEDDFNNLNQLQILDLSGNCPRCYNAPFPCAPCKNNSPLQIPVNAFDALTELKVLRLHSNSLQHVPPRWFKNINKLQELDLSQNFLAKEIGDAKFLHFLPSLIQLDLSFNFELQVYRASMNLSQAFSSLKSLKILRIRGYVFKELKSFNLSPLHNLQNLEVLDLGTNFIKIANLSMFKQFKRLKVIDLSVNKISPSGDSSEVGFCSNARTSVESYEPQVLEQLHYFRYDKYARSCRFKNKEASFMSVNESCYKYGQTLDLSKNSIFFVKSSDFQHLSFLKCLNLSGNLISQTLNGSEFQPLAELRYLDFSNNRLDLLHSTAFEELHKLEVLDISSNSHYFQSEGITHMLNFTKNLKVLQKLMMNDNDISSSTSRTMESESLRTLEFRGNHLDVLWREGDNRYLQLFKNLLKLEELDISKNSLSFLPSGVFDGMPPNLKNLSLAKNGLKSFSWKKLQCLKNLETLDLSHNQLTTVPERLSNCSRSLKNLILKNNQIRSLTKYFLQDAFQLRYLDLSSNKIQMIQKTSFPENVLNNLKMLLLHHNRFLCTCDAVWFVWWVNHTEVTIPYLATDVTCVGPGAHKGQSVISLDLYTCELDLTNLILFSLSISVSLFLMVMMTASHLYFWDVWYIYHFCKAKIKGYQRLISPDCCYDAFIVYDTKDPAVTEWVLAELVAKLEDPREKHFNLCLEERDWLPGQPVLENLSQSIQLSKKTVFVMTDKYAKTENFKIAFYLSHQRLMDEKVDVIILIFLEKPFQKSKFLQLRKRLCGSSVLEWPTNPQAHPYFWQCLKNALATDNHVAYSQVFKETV
The experiment can be described thus: PBL/HCV replicon bioassay. The settings on record: read-out: EC50 (nM) (n = no. of experiments). Type of experiment: cell-based. An excerpt:
EMCV: Encephalomyocarditis virus IRES: Internal ribosmomal entry site Huh: Huh-7 human hepatoma cell line 7 (parental cells used to generate HCV replicon cell lines) IUC: luciferase ubi: ubiquitin neo: neomycin ET: glutamic acid, threonine (cell culture adaptive mutations in the replicon used in the assay) RPMI-FCS: Roswell Park Memorial Institute (cell culture medium for PBL)—Foetal Calf Serum PBL: peripheral blood lymphocytes
PBL contain as a subpopulation plasmacytoid dendritic cells which are the natural interferon producing cells during an infection and as such are an excellent model in which to profile interferon inducers. As an extremely sensitive antiviral bioassay, supernatant taken from PBL is assayed for antiviral activity in the HCV replicon system.
The HCV replicon (Huh-5-2[l389 luc-ubi-neo-NS3-3′/ET]) is an in vitro model of HCV replication in which the luciferase reporter is incorporated into HCV sequences and stably maintained in the human hepatoma cell line Huh-7. The firefly luciferase reporter is expressed as a luciferase-ubiquitin-neomycin phosphotransferase fusion protein which is cleaved by host proteases to release luciferase. […] Firefly luciferase activity is detected using a Bright-Glo™ Luciferase Assay System manufactured by Promega. […]

For the molecule `CC(C)Cn1cnc2c(N)nc3ccccc3c21` [Imiquimod], the “direct response of HCV replicon containing cells to the TLR agonist” value in experiment [1] is “do not respond directly”.

As to `Cc1ccc(Cn2c(=O)[nH]c3c(N)nc(OCC4CCCO4)cc32)cn1` (stereo not drawn) [Example 5, 4-Amino-1-(6-methyl-pyridin-3-ylmethyl)-6-(tetrahydro-furan-2-R/S-ylmethoxy)-1,3-dihydro-imidazo[4,5-c]pyridin-2-one], the EC50 at TLR7 was 698 nM and 1240 nM and 1160 nM and 3700 nM and 475 nM and 1430 nM and 1040 nM and 583 nM and 1010 nM and 737 nM. On to `Cc1ccc(Cn2c(=O)[nH]c3c(N)nc(OC[C@H]4CCCO4)cc32)cn1` [Example 6, 4-Amino-1-(6-methyl-pyridin-3-ylmethyl)-6-(tetrahydro-furan-2-R-ylmethoxy)-1,3-dihydro-imidazo[4,5-c]pyridin-2-one], for which, on TLR7, the EC50 was > 4000 nM and 1920 nM and 1000 nM and 1450 nM and 1940 nM and 1470 nM and 1250 nM and 1580 nM.
